{"source": "patent US20050075375A1", "about": "(priority 2003, published 2005)", "tested_on": "monocistronic NK5.1 HCV replicon in Huh7 cells", "test": "HCV replicon assay, monocistronic replicon cell line", "assay_type": "cell-based, hepatitis C virus", "conditions": "Hepatitis C virus, Huh-7, 72 h; table T3 (compounds 471-640); monocistronic replicon in Huh7 cells, 3 days incubation, HCV RNA/GAPDH RNA by TaqMan RT-PCR; read-out: Mono EC50 Median", "in_short": "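EC50 derives from the HCV RNA/GAPDH RNA ratio by one-step TaqMan RT-PCR, relative to DMSO-only wells. Compounds (six half-log concentrations, 0.6% DMSO) were incubated 3 days at 37 °C with NK5.1 monocistronic replicon Huh7 cells plated a day earlier.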", "data": [{"molecule": "Cn1nc(-c2ccccn2)nc1-c1c(O)ccc2ccccc12", "note": "[Compound 605, 1-(2-methyl-5-Pyridin-2-yl-2H-[1,2,4]triazol-3-yl)-naphthalen-2-ol]", "values": [{"measurement": "EC50", "value": 9, "unit": "µM"}]}, {"molecule": "Cn1nc(-c2ccccn2)nc1-c1ccc2ccccc2c1O", "note": "[Compound 606, 2-(2-Methyl-5-pyridin-2-yl-2H-[1,2,4]triazol-3-yl)-naphthalen-1-ol]", "values": [{"measurement": "EC50", "value": 2.4, "unit": "µM"}]}, {"molecule": "Cc1cccnc1-c1nc(-c2cc([N+](=O)[O-])ccc2O)n(C)n1", "note": "[Compound 607, 4-Nitro-2-[2-methyl-5-(3-methyl-pyridin-2-yl)-2H-[1,2,4]triazol-3-yl]-phenol]", "values": [{"measurement": "EC50", "value": 2.8, "unit": "µM"}]}, {"molecule": "Cc1cccnc1-c1nc(-c2cc(F)ccc2O)n(C)n1", "note": "[Compound 608, 4-Fluoro-2-[2-methyl-5-(3-methyl-pyridin-2-yl)-2H-[1,2,4]triazol-3-yl]-phenol]", "values": [{"measurement": "EC50", "value": 8.1, "unit": "µM"}]}, {"molecule": "COc1ccc(O)c(-c2nc(-c3ncccc3C)nn2C)c1", "note": "[Compound 609, 4-Methoxy-2-[2-methyl-5-(3-methyl-pyridin-2-yl)-2H-[1,2,4]triazol-3-yl]-phenol]", "values": [{"measurement": "EC50", "value": 17, "unit": "µM"}]}, {"molecule": "Cc1cccnc1-c1nc(-c2cc(Cl)ccc2O)n(C)n1", "note": "[Compound 610, 4-Chloro-2-[2-methyl-5-(3-methyl-pyridin-2-yl)-2H-[1,2,4]triazol-3-yl]-phenol]", "values": [{"measurement": "EC50", "value": 2.5, "unit": "µM"}]}, {"molecule": "Cc1cccnc1-c1nc(-c2ccc(OCc3ccccc3)cc2O)n(C)n1", "note": "[Compound 611, 5-Benzyloxy-2-[2-methyl-5-(3-methyl-pyridin-2-yl)-2H-[1,2,4]triazol-3-yl]-phenol]", "values": [{"measurement": "EC50", "value": "> 3.2", "unit": "µM"}]}, {"molecule": "Cc1cccnc1-c1nc(-c2cc(Br)ccc2O)n(C)n1", "note": "[Compound 612, 4-Bromo-2-[2-methyl-5-(3-methyl-pyridin-2-yl)-2H-[1,2,4]triazol-3-yl]-phenol]", "values": [{"measurement": "EC50", "value": 2.4, "unit": "µM"}]}, {"molecule": "COc1ccc(-c2nc(-c3ncccc3C)nn2C)c(O)c1", "note": "[Compound 613, 5-Methoxy-2-[2-methyl-5-(3-methyl-pyridin-2-yl)-2H-[1,2,4]triazol-3-yl]-phenol]", "values": [{"measurement": "EC50", "value": 6.4, "unit": "µM"}]}, {"molecule": "Cc1cccnc1-c1nc(-c2ccccc2O)n(C)n1", "note": "[Compound 614, 2-[2-methyl-5-(3-methyl-pyridin-2-yl)-2H-[1,2,4]triazol-3-yl]-phenol]", "values": [{"measurement": "EC50", "value": 6.9, "unit": "µM"}]}, {"molecule": "COc1cccc(-c2nc(-c3ncccc3C)nn2C)c1O", "note": "[Compound 615, 6-Methoxy-2-[2-methyl-5-(3-methyl-pyridin-2-yl)-2H-[1,2,4]triazol-3-yl]-phenol]", "values": [{"measurement": "EC50", "value": 18, "unit": "µM"}]}, {"molecule": "Cc1cccnc1-c1nc(-c2cc(O)ccc2O)n(C)n1", "note": "[Compound 616, 4-Hydroxy-2-[2-methyl-5-(3-methyl-pyridin-2-yl)-2H-[1,2,4]triazol-3-yl]-phenol]", "values": [{"measurement": "EC50", "value": 35.8, "unit": "µM"}]}, {"molecule": "Cc1cccnc1-c1nc(-c2c(O)ccc3ccccc23)n(C)n1", "note": "[Compound 617, 1-[2-methyl-5-(3-methyl-pyridin-2-yl)-2H-[1,2,4]triazol-3-yl]-naphthalen-2-ol]", "values": [{"measurement": "EC50", "value": "> 19", "unit": "µM"}]}, {"molecule": "Cc1cccnc1-c1nc(-c2ccc3ccccc3c2O)n(C)n1", "note": "[Compound 618, 2-[2-methyl-5-(3-methyl-pyridin-2-yl)-2H-[1,2,4]triazol-3-yl]-naphthalen-1-ol]", "values": [{"measurement": "EC50", "value": 1.5, "unit": "µM"}]}, {"molecule": "Oc1c(Cl)cc(Cl)cc1-c1nc(-c2ccccn2)n[nH]1", "note": "[Compound 619, 4,6-Dichloro-2-(5-pyridin-2-yl-2H-[1,2,4]triazol-3-yl)-phenol]", "values": [{"measurement": "EC50", "value": 0.3, "unit": "µM"}]}, {"molecule": "Oc1c(Br)cc(Br)cc1-c1nc(-c2ccccn2)n[nH]1", "note": "[Compound 620, 4,6-Dibromo-2-(5-pyridin-2-yl-2H-[1,2,4]triazol-3-yl)-phenol]", "values": [{"measurement": "EC50", "value": 0.6, "unit": "µM"}]}, {"molecule": "Oc1c(Br)cc(Cl)cc1-c1nc(-c2ccccn2)n[nH]1", "note": "[Compound 621, 4-Chloro-6-bromo-2-(5-pyridin-2-yl-2H-[1,2,4]triazol-3-yl)-phenol]", "values": [{"measurement": "EC50", "value": 0.5, "unit": "µM"}]}, {"molecule": "Cc1cccnc1-c1n[nH]c(-c2cc(Cl)cc(Cl)c2O)n1", "note": "[Compound 622, 4,6-Dichloro-2-[5-(3-methyl-pyridin-2-yl)-2H-[1,2,4]triazol-3-yl]-phenol]", "values": [{"measurement": "EC50", "value": 1.4, "unit": "µM"}]}, {"molecule": "Cc1cccnc1-c1n[nH]c(-c2cc(Br)cc(Br)c2O)n1", "note": "[Compound 623, 4,6-Dibromo-2-[5-(3-methyl-pyridin-2-yl)-2H-[1,2,4]triazol-3-yl]-phenol]", "values": [{"measurement": "EC50", "value": 1.5, "unit": "µM"}]}, {"molecule": "Cc1cccnc1-c1n[nH]c(-c2cc(Cl)cc(Br)c2O)n1", "note": "[Compound 624, 4-Chloro-6-bromo-2-[5-(3-methyl-pyridin-2-yl)-2H-[1,2,4]triazol-3-yl]-phenol]", "values": [{"measurement": "EC50", "value": 2.2, "unit": "µM"}]}, {"molecule": "Cn1nc(-c2ccccn2)nc1-c1cc(Cl)cc(Cl)c1O", "note": "[Compound 625, 4,6-Dichloro-2-(2-methyl-5-pyridin-2-yl-2H-[1,2,4]triazol-3-yl)-phenol]", "values": [{"measurement": "EC50", "value": 3.2, "unit": "µM"}]}, {"molecule": "Cn1nc(-c2ccccn2)nc1-c1cc(Br)cc(Br)c1O", "note": "[Compound 626, 4,6-Dibromo-2-(2-methyl-5-pyridin-2-yl-2H-[1,2,4]triazol-3-yl)-phenol]", "values": [{"measurement": "EC50", "value": 4.8, "unit": "µM"}]}, {"molecule": "Cn1nc(-c2ccccn2)nc1-c1cc(Cl)cc(Br)c1O", "note": "[Compound 627, 6-Bromo-4-Chloro-2-(2-methyl-5-pyridin-2-yl-2H-[1,2,4]triazol-3-yl)-phenol]", "values": [{"measurement": "EC50", "value": 2.5, "unit": "µM"}]}, {"molecule": "c1ccc(-c2ncn(-c3ccccn3)n2)cc1", "note": "[Compound 628, 2-(3-Phenyl-[1,2,4]triazol-1-yl)-pyridine]", "values": [{"measurement": "EC50", "value": "> 32", "unit": "µM"}]}, {"molecule": "Oc1ccccc1-c1ncn(-c2ccccn2)n1", "note": "[Compound 629, 2-(1-Pyridin-2-yl-1H-[1,2,4]triazol-3-yl)-phenol]", "values": [{"measurement": "EC50", "value": 16, "unit": "µM"}]}, {"molecule": "Oc1ccc(Cl)cc1-c1ncn(-c2ccccn2)n1", "note": "[Compound 630, 4-Chloro-2-(1-pyridin-2-yl-1H-[1,2,4]triazol-3-yl)-phenol]", "values": [{"measurement": "EC50", "value": 11, "unit": "µM"}]}, {"molecule": "Oc1ccc(Br)cc1-c1ncn(-c2ccccn2)n1", "note": "[Compound 631, 4-Bromo-2-(1-pyridin-2-yl-1H-[1,2,4]triazol-3-yl)-phenol]", "values": [{"measurement": "EC50", "value": 1.4, "unit": "µM"}]}, {"molecule": "COc1ccc(O)c(-c2nc(-c3ncccc3C(F)(F)F)nn2C)c1", "note": "[Compound 632, 4-Methoxy-2-[2-methyl-5-(3-trifluoromethyl-pyridin-2-yl)-2H-[1,2,4]triazol-3-yl]-phenol]", "values": [{"measurement": "EC50", "value": 31, "unit": "µM"}]}, {"molecule": "Cn1nc(-c2ncccc2C(F)(F)F)nc1-c1cc(Br)ccc1O", "note": "[Compound 633, 4-Bromo-2-[2-methyl-5-(3-trifluoromethyl-pyridin-2-yl)-2H-[1,2,4]triazol-3-yl]phenol]", "values": [{"measurement": "EC50", "value": 3.6, "unit": "µM"}]}, {"molecule": "Oc1ccc(Br)cc1-c1ncn(-c2ncccc2C(F)(F)F)n1", "note": "[Compound 634, 4-Bromo-2-[1-(3-trifluoromethyl-pyridin-2-yl)-1H-[1,2,4]triazol-3-yl]-phenol]", "values": [{"measurement": "EC50", "value": 3.8, "unit": "µM"}]}, {"molecule": "Cc1cccnc1-n1cnc(-c2cc(Br)ccc2O)n1", "note": "[Compound 635, 4-Bromo-2-[1-(3-methyl-pyridin-2-yl)-1H-[1,2,4]triazol-3-yl]-phenol]", "values": [{"measurement": "EC50", "value": 6.2, "unit": "µM"}]}, {"molecule": "COc1ccc(O)c(-c2ncn(-c3ccccn3)n2)c1", "note": "[Compound 636, 4-Methoxy-2-(1-pyridin-2-yl-1H-[1,2,4]triazol-3-yl)-phenol]", "values": [{"measurement": "EC50", "value": 15, "unit": "µM"}]}, {"molecule": "COc1ccc(O)c(-c2ncn(-c3ncccc3C)n2)c1", "note": "[Compound 637, 4-Methoxy-2-[1-(3-methyl-pyridin-2-yl)-1H-[1,2,4]triazol-3-yl]-phenol]", "values": [{"measurement": "EC50", "value": 12, "unit": "µM"}]}, {"molecule": "COc1ccc(O)c(-c2ncn(-c3ncccc3C(F)(F)F)n2)c1", "note": "[Compound 638, 4-Methoxy-2-[1-(3-trifluoromethyl-pyridin-2-yl)-1H-[1,2,4]triazol-3-yl]-phenol]", "values": [{"measurement": "EC50", "value": 11, "unit": "µM"}]}, {"molecule": "c1ccc(-c2ncn(-c3ccccn3)n2)nc1", "note": "[Compound 639]", "values": [{"measurement": "EC50", "value": "> 32", "unit": "µM"}]}, {"molecule": "Cn1nc(-c2ncccc2C(F)(F)F)nc1-c1cc([N+](=O)[O-])ccc1O", "note": "[Compound 640, 4-Nitro-2-[2-methyl-5-(3-trifluoromethyl-pyridin-2-yl)-2H-[1,2,4]triazol-3-yl]-phenol]", "values": [{"measurement": "EC50", "value": "> 32", "unit": "µM"}]}]}
